Columns and labels:
Colo-829 cells = assay: Cytotoxic activity, WST-1 assay, melanoma Colo-829; type: cell-based, human; conditions: for SI (IC50 HFF-1/IC50 cancer line) Colo-829: HFF-1 vs Colo-829; for IC50: Homo sapiens, melanoma Colo-829, 72 h, WST-1
Text: (§1) Anticancer activity of compounds 11–14 was designated against following human cancer cell lines: melanoma (Colo-829), ovarian cancer (SK-OV-3), breast cancer (MDA-MB-231, T47D and MCF-7), lung cancer (A549) and normal fibroblasts (HFF-1). As a reference substance, the doxorubicin was used. The results are presented in Table 1 as IC50, where IC50 means the concentration of tested compounds (µM) causing the growth inhibition of 50% for given tumor cells. The negative value (Neg.) means that the IC50 is higher than 30 µM. Selectivity index (SI) as the ratio of the IC50 for normal fibroblast (HFF-1) to IC50 of the corresponding cell line, is presented in Table S2.
(§2) Compounds 7–14 and doxorubicin were tested for cytotoxic activity in vitro against panel of human cancer cell lines: melanoma (Colo-829, ATCC, Rockville, MD, USA), ovarian cancer (SK-OV-3, ATCC, Rockville, MD, USA), breast cancer (T47D, MCF-7, and MDA-MB-231, ATCC, Rockville, MD, USA) and lung cancer (A549, ATCC, Rockville, MD, USA). The cultured cells were kept at 37 °C and 5% CO2. The cells were seeded (5 × 10^4 cells/well/[…] DMEM supplemented with 10% FCS and streptomycin/penicillin) using 96-well plates (Nunc Thermo Fisher Scientific, Waltham, MA, USA). The tested compounds 7–14 with the concentration of 1–100 µg/mL DMSO were inducted with the cancer cells for 72 h. The WST-1-formazan (proliferation reagent WST-1 assay, Roche Diagnostics, Mannheim, Germany) was detected using a microplate reader at 450 nm. Results were expressed as a mean value of at least three independent experiments performed in triplicate.

HFF-1 cells = assay: Cytotoxic activity, WST-1 assay, normal fibroblasts HFF-1; type: cell-based; conditions: Homo sapiens, normal fibroblasts HFF-1, 72 h
Text: as §1, §2

SK-OV-3 cells = assay: Cytotoxic activity, WST-1 assay, ovarian cancer SK-OV-3; type: cell-based, human; conditions: for SI (IC50 HFF-1/IC50 cancer line) SK-OV-3: HFF-1 vs SK-OV-3; for IC50: Homo sapiens, ovarian cancer SK-OV-3, 72 h, WST-1
Text: as §1, §2

[1] = target: T1, NQO1 (DT-diaphorase, EC 1.6.5.5, human recombinant) (Homo sapiens, UniProt P15559); assay: NQO1 substrate NADPH recycling enzymatic assay; type: biochemical; conditions: for NQO1 activity (enzymatic conversion rate): compound 10 µmol/L, pH 7.4, 25 °C, absorbance at 340 nm
T1 construct: purchased Sigma-Aldrich
T1 sequence (P15559 whole entry): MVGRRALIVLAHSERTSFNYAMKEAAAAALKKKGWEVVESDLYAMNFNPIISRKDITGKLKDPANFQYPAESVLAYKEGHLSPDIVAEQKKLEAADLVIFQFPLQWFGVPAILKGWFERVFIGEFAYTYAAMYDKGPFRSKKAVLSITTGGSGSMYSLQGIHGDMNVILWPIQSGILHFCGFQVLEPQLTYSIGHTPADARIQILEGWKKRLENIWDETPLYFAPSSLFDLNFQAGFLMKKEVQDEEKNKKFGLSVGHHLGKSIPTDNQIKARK
Protocol: The interaction between 1,4-quinone moiety of hybrid and NQO1 protein leads to reduction in quinone to hydroquinone and production of reactive oxide form (ROS). According to a literature method, the ability of hybrids 11–14 and streptonigrin (ST) to be a substrate for NQO1 was examined by measuring the oxidation of NADPH to NADP^+ [29, 32].
Compounds 11–14 (10 µmol/L) were tested as NQO1 substrates using the NADPH recycling assay according to the literature method. The recombinant NQO1 (DT-diaphorase, EC 1.6.5.5, human recombinant, Sigma-Aldrich) was used, and the oxidation of NADPH to NADP^+ was measured at the absorption wavelength of 340 nm on the BioTek 800TS microplate reader (BioKom, Janki, Poland). Compounds were dissolved in dimethyl sulfoxide (2 µL) and added to the 96-well plate. The NQO1 protein (1.4 µg/mL) in 50 mmol/L potassium phosphate buffer (pH = 7.4) was added to each well (198 µL) (Nunc Thermo Fisher Scientific, Waltham, MA, USA). Once the 96-well plate was filled with the assay solutions, except the NADPH solution, it was placed into the instrument and left to sit for 5 min before starting the measurements. The enzymatic reaction was initiated by automatically dispensing the NADPH solution into the wells, and data were recorded at 10 s intervals for 5 min at 25 °C. The linear part of the absorbance vs. time graphs (the first 20 s to 1 min) was fitted, and the slopes were calculated. NADPH oxidation rates were compared with reactions lacking the tested compound. Initial velocities were calculated, and data were expressed as µmol NADPH/µmol NQO1/min. All reactions were carried out at least in triplicate.

T47D cells = assay: Cytotoxic activity, WST-1 assay, breast cancer T47D; type: cell-based, human; conditions: for SI (IC50 HFF-1/IC50 cancer line) T47D: HFF-1 vs T47D; for IC50: Homo sapiens, breast cancer T47D, 72 h, WST-1
Text: as §1, §2

A549 cells = assay: Cytotoxic activity, WST-1 assay, lung cancer A549; type: cell-based, human; conditions: for SI (IC50 HFF-1/IC50 cancer line) A549: HFF-1 vs A549; for IC50: Homo sapiens, lung cancer A549, 72 h, WST-1
Text: as §1, §2

MDA-MB-231 cells = assay: Cytotoxic activity, WST-1 assay, breast cancer MDA-MB-231; type: cell-based, human; conditions: for SI (IC50 HFF-1/IC50 cancer line) MDA-MB-231: HFF-1 vs MDA-MB-231; for IC50: Homo sapiens, breast cancer MDA-MB-231, 72 h, WST-1
Text: as §1, §2

MCF-7 cells = assay: Cytotoxic activity, WST-1 assay, breast cancer MCF-7; type: cell-based, human; conditions: for SI (IC50 HFF-1/IC50 cancer line) MCF-7: HFF-1 vs MCF-7; for IC50: Homo sapiens, MCF7, breast cancer MCF-7, 72 h, WST-1
Text: as §1, §2

Cc1ccc2c(n1)C(=O)C(Oc1cccc3ccc(Cl)nc13)=C(Cl)C2=O [Compound 12d, 6-chloro-2-methyl-7-[(2-chloroquinolin-8-yl)oxy]quinoline-5,8-dione]
SI (IC50 HFF-1/IC50 cancer line) Colo-829 (Colo-829 cells): 0.78
IC50 (Colo-829 cells): 13100 ± 490 nM
IC50 (HFF-1 cells): 10300 ± 1650 nM
SI (IC50 HFF-1/IC50 cancer line) SK-OV-3 (SK-OV-3 cells): 0.67
IC50 (SK-OV-3 cells): 15400 ± 480 nM
NQO1 activity (enzymatic conversion rate) [1]: 890 ± 21 µmol NADPH/µmol NQO1/min
SI (IC50 HFF-1/IC50 cancer line) T47D (T47D cells): 0.64
IC50 (T47D cells): 16200 ± 980 nM
SI (IC50 HFF-1/IC50 cancer line) A549 (A549 cells): 7.04
IC50 (A549 cells): 1460 ± 60 nM
SI (IC50 HFF-1/IC50 cancer line) MDA-MB-231 (MDA-MB-231 cells): 0.66
IC50 (MDA-MB-231 cells): 15600 ± 790 nM
melting point: 120 to 122 °C
SI (IC50 HFF-1/IC50 cancer line) MCF-7 (MCF-7 cells): 0.59
IC50 (MCF-7 cells): 17400 ± 820 nM

O=C1C(Cl)=C(Oc2cccc3cccnc23)C(=O)c2cnccc21 [Compound 13a, 6-chloro-7-(quinolin-8-yloxy)isoquinoline-5,8-dione]
SI (IC50 HFF-1/IC50 cancer line) Colo-829 (Colo-829 cells): 162.88
IC50 (Colo-829 cells): 170 ± 20 nM
IC50 (HFF-1 cells): 27700 ± 700 nM
SI (IC50 HFF-1/IC50 cancer line) SK-OV-3 (SK-OV-3 cells): 60.20
IC50 (SK-OV-3 cells): 460 ± 20 nM
NQO1 activity (enzymatic conversion rate) [1]: 1210 ± 23 µmol NADPH/µmol NQO1/min
SI (IC50 HFF-1/IC50 cancer line) T47D (T47D cells): 307.67
IC50 (T47D cells): 90 ± 40 nM
SI (IC50 HFF-1/IC50 cancer line) A549 (A549 cells): 923.00
IC50 (A549 cells): 30 ± 10 nM
SI (IC50 HFF-1/IC50 cancer line) MDA-MB-231 (MDA-MB-231 cells): 27.15
IC50 (MDA-MB-231 cells): 1020 ± 150 nM
melting point: 86 to 88 °C
SI (IC50 HFF-1/IC50 cancer line) MCF-7 (MCF-7 cells): 23.87
IC50 (MCF-7 cells): 1160 ± 150 nM

O=C1C(Cl)=C(Oc2cccc3ccc(Cl)nc23)C(=O)c2ncccc21 [Compound 11d, 6-chloro-7-[(2-chloroquinolin-8-yl)oxy]quinoline-5,8-dione]
SI (IC50 HFF-1/IC50 cancer line) Colo-829 (Colo-829 cells): 9.48
IC50 (Colo-829 cells): 1450 ± 240 nM
IC50 (HFF-1 cells): 13700 ± 1270 nM
SI (IC50 HFF-1/IC50 cancer line) SK-OV-3 (SK-OV-3 cells): 8.81
IC50 (SK-OV-3 cells): 1560 ± 110 nM
NQO1 activity (enzymatic conversion rate) [1]: 800 ± 64 µmol NADPH/µmol NQO1/min
SI (IC50 HFF-1/IC50 cancer line) T47D (T47D cells): 6.54
IC50 (T47D cells): 2100 ± 110 nM
SI (IC50 HFF-1/IC50 cancer line) A549 (A549 cells): 8.04
IC50 (A549 cells): 1710 ± 30 nM
SI (IC50 HFF-1/IC50 cancer line) MDA-MB-231 (MDA-MB-231 cells): 6.77
IC50 (MDA-MB-231 cells): 2030 ± 50 nM
melting point: 123 to 125 °C
SI (IC50 HFF-1/IC50 cancer line) MCF-7 (MCF-7 cells): 6.51
IC50 (MCF-7 cells): 2110 ± 90 nM

Cc1ccc2c(n1)C(=O)C(Oc1cccc3ccc(C=O)nc13)=C(Cl)C2=O [Compound 12c, 8-[(6-chloro-2-methyl-5,8-dioxo-5,8-dihydroquinolin-7-yl)oxy]quinoline-2-carbaldehyde]
SI (IC50 HFF-1/IC50 cancer line) Colo-829 (Colo-829 cells): 1.23
IC50 (Colo-829 cells): 14600 ± 510 nM
IC50 (HFF-1 cells): 17900 ± 1370 nM
SI (IC50 HFF-1/IC50 cancer line) SK-OV-3 (SK-OV-3 cells): 8.28
IC50 (SK-OV-3 cells): 2160 ± 190 nM
NQO1 activity (enzymatic conversion rate) [1]: 470 ± 22 µmol NADPH/µmol NQO1/min
SI (IC50 HFF-1/IC50 cancer line) T47D (T47D cells): 0.77
IC50 (T47D cells): 23300 ± 1120 nM
SI (IC50 HFF-1/IC50 cancer line) A549 (A549 cells): 5.70
IC50 (A549 cells): 3140 ± 430 nM
SI (IC50 HFF-1/IC50 cancer line) MDA-MB-231 (MDA-MB-231 cells): 0.85
IC50 (MDA-MB-231 cells): 21120 ± 110 nM
melting point: 184 to 186 °C
SI (IC50 HFF-1/IC50 cancer line) MCF-7 (MCF-7 cells): 0.94
IC50 (MCF-7 cells): 19100 ± 950 nM

O=C1C(Cl)=C(Oc2cccc3cccnc23)C(=O)c2ncccc21 [Compound 11a, 6-chloro-7-(quinolin-8-yloxy)quinoline-5,8-dione]
SI (IC50 HFF-1/IC50 cancer line) Colo-829 (Colo-829 cells): 0.55
IC50 (Colo-829 cells): 18500 ± 1310 nM
IC50 (HFF-1 cells): 10200 ± 160 nM
SI (IC50 HFF-1/IC50 cancer line) SK-OV-3 (SK-OV-3 cells): 6.59
IC50 (SK-OV-3 cells): 1550 ± 200 nM
NQO1 activity (enzymatic conversion rate) [1]: 1399 ± 26 µmol NADPH/µmol NQO1/min
Enzymatic conversion rate relative to streptonigrin ([1]; fold higher than streptonigrin): about 2 times
SI (IC50 HFF-1/IC50 cancer line) T47D (T47D cells): 0.55
IC50 (T47D cells): 18700 ± 710 nM
SI (IC50 HFF-1/IC50 cancer line) A549 (A549 cells): 6.08
IC50 (A549 cells): 1680 ± 50 nM
SI (IC50 HFF-1/IC50 cancer line) MDA-MB-231 (MDA-MB-231 cells): 0.89
IC50 (MDA-MB-231 cells): 11500 ± 190 nM
melting point: 112 to 114 °C
SI (IC50 HFF-1/IC50 cancer line) MCF-7 (MCF-7 cells): 0.53
IC50 (MCF-7 cells): 19400 ± 370 nM

Cc1ccc2c(n1)C(=O)C(Oc1cccc3cccnc13)=C(Cl)C2=O [Compound 12a, 6-chloro-2-methyl-7-(quinolin-8-yloxy)quinoline-5,8-dione]
SI (IC50 HFF-1/IC50 cancer line) Colo-829 (Colo-829 cells): 11.41
IC50 (Colo-829 cells): 1520 ± 350 nM
IC50 (HFF-1 cells): 17300 ± 890 nM
SI (IC50 HFF-1/IC50 cancer line) SK-OV-3 (SK-OV-3 cells): 346.80
IC50 (SK-OV-3 cells): 50 ± 20 nM
NQO1 activity (enzymatic conversion rate) [1]: 1505 ± 54 µmol NADPH/µmol NQO1/min
SI (IC50 HFF-1/IC50 cancer line) T47D (T47D cells): 10.91
IC50 (T47D cells): 1590 ± 150 nM
SI (IC50 HFF-1/IC50 cancer line) A549 (A549 cells): 20.40
IC50 (A549 cells): 850 ± 40 nM
SI (IC50 HFF-1/IC50 cancer line) MDA-MB-231 (MDA-MB-231 cells): 8.80
IC50 (MDA-MB-231 cells): 1970 ± 150 nM
melting point: 115 to 117 °C
SI (IC50 HFF-1/IC50 cancer line) MCF-7 (MCF-7 cells): 8.30
IC50 (MCF-7 cells): 2090 ± 20 nM

O=Cc1ccc2cccc(OC3=C(Cl)C(=O)c4ccncc4C3=O)c2n1 [Compound 13c, 8-[(6-chloro-5,8-dioxo-5,8-dihydroisoquinolin-7-yl)oxy]quinoline-2-carbaldehyde]
SI (IC50 HFF-1/IC50 cancer line) Colo-829 (Colo-829 cells): 38.97
IC50 (Colo-829 cells): 340 ± 280 nM
IC50 (HFF-1 cells): 13200 ± 850 nM
SI (IC50 HFF-1/IC50 cancer line) SK-OV-3 (SK-OV-3 cells): 41.41
IC50 (SK-OV-3 cells): 320 ± 10 nM
NQO1 activity (enzymatic conversion rate) [1]: 318 ± 19 µmol NADPH/µmol NQO1/min
SI (IC50 HFF-1/IC50 cancer line) T47D (T47D cells): 25.48
IC50 (T47D cells): 520 ± 80 nM
SI (IC50 HFF-1/IC50 cancer line) A549 (A549 cells): 10.04
IC50 (A549 cells): 1320 ± 320 nM
SI (IC50 HFF-1/IC50 cancer line) MDA-MB-231 (MDA-MB-231 cells): 17.67
IC50 (MDA-MB-231 cells): 750 ± 90 nM
melting point: 166 to 168 °C
SI (IC50 HFF-1/IC50 cancer line) MCF-7 (MCF-7 cells): 14.89
IC50 (MCF-7 cells): 890 ± 30 nM
